# Laboratory results published in patent US6903111B2 (priority 2001, dated 2005).
row,SMILES,melting point [°C]
1,O=C(Nc1ccncc1)[C@H](CC(=O)N1CC2CCC1CC2)Cc1ccccc1,171 to 172
2,O=C(Oc1ccc(NS(=O)(=O)C(F)(F)F)cc1)[C@H](CC(=O)N1CC2CCC1CC2)Cc1ccccc1,60 to 62
3,O=C(Nc1ccc(NS(=O)(=O)C(F)(F)F)cc1)[C@H](CC(=O)N1CC2CCC1CC2)Cc1ccccc1,136 to 138
4,CCOc1cc(CC(=O)N[C@H](CC(=O)N2CC3CCC2CC3)Cc2ccccc2)ccc1C(=O)O,100 to 103
5,O=C(Cc1ccc(NS(=O)(=O)C(F)(F)F)cc1)N[C@H](CC(=O)N1CC2CCC1CC2)Cc1ccccc1,78 to 80
6,O=C(Cc1ccc(NC(=O)C(=O)O)cc1)N[C@@H](CC(=O)N1CC2CCC1CC2)Cc1ccccc1,79 to 80
7,O=C(O)C(=O)Nc1ccc(C(=O)N[C@@H](CC(=O)N2CC3CCC2CC3)Cc2ccccc2)cc1,200 to 201
8,O=C(O)C(C[C@H](CC(=O)N1CC2CCC1CC2)CC1CCCCC1)C(=O)O,84 to 85
9,O=C(O)[C@H](CC(=O)N1CC2CCC1CC2)Oc1ccccc1,140 to 142
10,O=C(Nc1nccs1)[C@H](CC(=O)N1CC2CCC1CC2)Oc1ccccc1,60 to 65
11,O=C(O)[C@@H](CCOc1ccccc1)CC(=O)N1CC2CCC1CC2,117 to 119
12,O=C(O)[C@H](CCOc1ccccc1)CC(=O)N1CC2CCC1CC2,115 to 117
13,O=C(OC1CCCCC1)[C@H](CC(=O)N1CC2CCC1CC2)Cc1ccccc1 [Compound 14],92 to 95
14,O=C(O)[C@H](CCN1CC2CCC1CC2)Cc1ccccc1 [Compound 47],171 to 174

# Further lines, results first:
row,melting point [°C],SMILES
1,155 to 158,O=C(C[C@H](Cc1ccccc1)NS(=O)(=O)C(F)(F)F)N1CC2CCC1CC2
2,156 to 159,O=C(O)C(=O)N[C@H](CC(=O)N1CC2CCC1CC2)Cc1ccccc1
3,149 to 151,O=C(O)CC(=O)N[C@H](CC(=O)N1CC2CCC1CC2)Cc1ccccc1
4,127 to 129,CS(=O)(=O)N[C@H](CC(=O)N1CC2CCC1CC2)Cc1ccccc1
5,128 to 130,O=C(C[C@@H](Cc1ccccc1)NS(=O)(=O)C(F)(F)F)N1CC2CCC1CC2
6,129 to 130,CS(=O)(=O)N[C@@H](CC(=O)N1CC2CCC1CC2)Cc1ccccc1
7,69 to 72,O=C(Nc1nccs1)[C@H](CC(=O)N1CC2CCC1CC2)Cc1ccccc1
8,52 to 53,O=C(O)/C=C/[C@H](CC(=O)N1CC2CCC1CC2)Cc1ccccc1
9,79 to 81,O=C(O)CC[C@H](CC(=O)N1CC2CCC1CC2)Cc1ccccc1
10,118 to 120,O=C(Nc1cc(F)c(O)c(F)c1)[C@H](CC(=O)N1CC2CCC1CC2)Cc1ccccc1
11,78 to 80,O=C(O)C(C[C@H](CC(=O)N1CC2CCC1CC2)Cc1ccccc1)C(=O)O
12,60 to 61,O=C(O)C(O)[C@H](CC(=O)N1CC2CCC1CC2)Cc1ccccc1 (stereo partly drawn)
13,156 to 158,O=C(C[C@H](Cc1ccccc1)Nc1c(O)c(=O)c1=O)N1CC2CCC1CC2
14,148 to 151,O=C(C[C@@H](C=NOS(=O)(=O)O)Cc1ccccc1)N1CC2CCC1CC2
15,93 to 95,"O=C(O)[C@H](CC(=O)N1CC2CCC1CC2)Cc1ccccc1 [Compound 1, (2S)-2-benzyl-4-(isoquinuclidin-2-yl)-4-oxo-butanoic acid]"
16,> 250,O=C([O-])[C@H](CC(=O)N1CC2CCC1CC2)Cc1ccccc1.[Na+] [Compound 11]
17,112 to 113,"O=C(Oc1ccccc1)[C@H](CC(=O)N1CC2CCC1CC2)Cc1ccccc1 [Compound 15, (2S)-2-benzyl-4-(isoquinuclidin-2-yl)-4-oxo-butanoic acid phenylester]"
18,61 to 64,"O=C(Oc1ccc(O)cc1)[C@H](CC(=O)N1CC2CCC1CC2)Cc1ccccc1 [Compound 18, p-hydroxy phenyl (2S)-2-benzyl-4-(isoquinuclidine-2-yl)-4-oxo-butyrate]"
19,153 to 155,"CN(c1c(O)c(=O)c1=O)[C@H](CC(=O)N1CC2CCC1CC2)Cc1ccccc1 [Compound 52, N-(3-hydroxy-3-cyclobutene-1,2-dione-4-yl)-N-methyl-(1S)-[2-(isoquinuclidin-2-yl)-2-oxo-ethyl]-phenyl ethylamine]"
